Target: Non-receptor tyrosine-protein kinase TYK2 (Homo sapiens, UniProt P29597)
Assay: Inhibition of 10-His tagged recombinant TYK2 JH2 domain (575 to 876 residues) (unknown origin) incubated for 60 mins by TR-FRET assay

Sequence of Non-receptor tyrosine-protein kinase TYK2 (P29597 whole entry, the tested form may be a part): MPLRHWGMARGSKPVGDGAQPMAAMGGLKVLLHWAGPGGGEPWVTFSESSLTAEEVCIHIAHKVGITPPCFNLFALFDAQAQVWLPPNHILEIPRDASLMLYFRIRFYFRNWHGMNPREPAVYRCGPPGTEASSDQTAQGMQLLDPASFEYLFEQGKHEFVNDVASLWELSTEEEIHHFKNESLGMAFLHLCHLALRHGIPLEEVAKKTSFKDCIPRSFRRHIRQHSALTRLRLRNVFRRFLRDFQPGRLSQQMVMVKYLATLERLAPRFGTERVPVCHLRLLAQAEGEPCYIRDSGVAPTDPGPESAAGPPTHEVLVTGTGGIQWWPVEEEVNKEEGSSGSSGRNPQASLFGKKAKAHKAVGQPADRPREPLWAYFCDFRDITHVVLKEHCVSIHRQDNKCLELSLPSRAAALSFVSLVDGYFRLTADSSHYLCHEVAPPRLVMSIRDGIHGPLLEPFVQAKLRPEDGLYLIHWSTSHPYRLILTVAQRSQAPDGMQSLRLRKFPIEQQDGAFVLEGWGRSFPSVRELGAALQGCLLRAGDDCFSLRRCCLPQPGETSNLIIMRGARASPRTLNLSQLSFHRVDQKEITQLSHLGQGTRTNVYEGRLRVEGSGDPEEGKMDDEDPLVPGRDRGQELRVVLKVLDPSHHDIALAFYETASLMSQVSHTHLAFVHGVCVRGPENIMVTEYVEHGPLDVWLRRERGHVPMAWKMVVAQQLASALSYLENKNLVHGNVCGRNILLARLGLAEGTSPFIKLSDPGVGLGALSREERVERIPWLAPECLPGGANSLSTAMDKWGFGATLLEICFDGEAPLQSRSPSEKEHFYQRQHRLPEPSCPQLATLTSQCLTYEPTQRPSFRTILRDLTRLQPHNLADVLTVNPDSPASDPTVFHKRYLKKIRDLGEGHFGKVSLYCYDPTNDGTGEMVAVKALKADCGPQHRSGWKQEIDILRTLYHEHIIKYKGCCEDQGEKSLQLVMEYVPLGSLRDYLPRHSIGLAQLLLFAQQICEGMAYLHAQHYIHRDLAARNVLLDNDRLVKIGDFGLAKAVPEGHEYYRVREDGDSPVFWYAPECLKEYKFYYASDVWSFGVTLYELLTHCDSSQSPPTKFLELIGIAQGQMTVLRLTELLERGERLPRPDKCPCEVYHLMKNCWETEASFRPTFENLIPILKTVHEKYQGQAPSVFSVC

IC50, ≤ 10 nM:
CC(=O)Nc1cc2c(cn1)C1(CC1)CN2c1cc(C)nc(C2CCC2)n1
CC(=O)Nc1cc2c(cn1)C1(CC1)CN2c1cc(NC2CCSC2)nc(C(C)(F)F)n1 (stereo unspecified)
CSc1nc(C)cc(N2CC3(CC3)c3cnc(NC(C)=O)cc32)n1
CC(=O)Nc1cc2c(cn1)C1(CC1)CN2c1nc(C2CCOC2)c(C)s1 (stereo unspecified)
CC(=O)Nc1cc2c(cn1)C1(CC1)CN2c1cc(-c2ncn(C)n2)nc(C(C)(F)F)n1
CC(=O)Nc1cc2c(cn1)C1(CC1)CN2c1cccc(S(C)(=O)=O)n1

Reference: ChEMBL document CHEMBL5532728, “Novel Tyrosine Kinase 2 Inhibitors for Treating Autoimmune and Inflammatory Diseases” (ACS Med Chem Lett, 2024)
